The values below come from US20220267352A1, “RAPAMYCIN ANALOGS AND USES THEREOF” (Anakuria Therapeutics, Inc., priority 2021, published 2022).

What all share (format): cell-based
The subject of assay [1] is p-Akt 1/2/3 (Ser473) in MCF-7 cells. Nature of the assay: AlphaLISA Ultra pAKT assay. Conditions: Homo sapiens, 1.5 h; MCF7 cells, 90 min. In short, it runs like this: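 MCF-7 cells (16,000˜20,000 per well in 36 μL medium) were seeded in Corning 3701 plates for 20˜24 hour, refreshed with new medium for 90 minutes, then given 12 μL of 4× compound (0.5% final DMSO). Cells were lysed with 2× lysis buffer, and lysate was analyzed by AlphaLISA Ultra pAKT using acceptor and donor beads, read on an EnSpire reader.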

Another assay has as its system mTORC1 over mTORC2. Nature of the assay: mTORC1 over mTORC2 selectivity by comparing pS6K1 and pAKT IC50. The conditions noted are these: by comparing pS6K1 and pAKT IC50, 90 min. The procedure, abridged:
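MCF-7 cells were treated with compounds (0.5% final DMSO) for 90 minutes in one protocol and 2 hours in the other, then lysed. Phospho-signal in lysates was read by bead-based donor/acceptor proximity assay. pS6K1 and pAKT IC50 values were compared to judge mTORC1 over mTORC2 selectivity, at 90 min and at 24 hrs.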

Assay [2] relates to p-p70 S6 Kinase (Thr389) in MCF-7 cells. Nature of the assay: AlphaLISA Ultra pS6K1 assay. Conditions: Homo sapiens, 1.5 h; MCF7 cells, 90 min. In short, it runs like this: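 MCF-7 cells seeded 20–24 h, given fresh medium 2 h, then treated with compounds 90 min (0.5% DMSO final). Cells lysed, lysates frozen at −80 °C, then Thr389-phosphorylated S6K1 detected by AlphaLISA Ultra with acceptor beads 2 h, then donor beads 2 h.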

Each structure is given as a SMILES string.

Take `CO[C@@H]1/C(C)=C/[C@@H](C)C(=O)C[C@@H]([C@H](C)C[C@@H]2CC[C@@H](OP(C)(C)=O)[C@H](OC)C2)OC(=O)[C@@H]2CCCCN2C(=O)C(=O)[C@]2(O)O[C@@H](CC[C@H]2C)CC(OCCOC2COC2)/C(C)=C/C=C/C=C/[C@@H](C)C[C@@H](C)C(=O)[C@@H]1OC` (stereo partly drawn) [I-75, (1R,2R,4S)-4-((2R)-2-((3S,6R,7E,9R,10R,12R,14S,15E,17E,19E,23S,26R,27R,34aS)-27-hydroxy-9,10-dimethoxy-6,8,12,14,20,26-hexamethyl-21-(2-(oxetan-3-yloxy)ethoxy)-1,5,11,28,29-pentaoxo-1,4,5,6,9,10,11,12,13,14,21,22,23,24,25,26,27,28,29,31,32,33,34,34a-tetracosahydro-3H-23,27-epoxypyrido[2,1-c][1]oxa[4]azacyclohentriacontin-3-yl)propyl)-2-methoxycyclohexyl dimethylphosphinate]: the IC50 in assay [1] and in assay [2] was no less than 1000 nM in each case. Moreover, in the assay on mTORC1 over mTORC2, the “mTORC1 selective @ 90 min” value was “Yes”.

Turning to `CO[C@@H]1C[C@H](C[C@@H](C)[C@@H]2CC(=O)[C@H](C)/C=C(\C)[C@@H](O)[C@@H](OC)C(=O)[C@H](C)C[C@H](C)/C=C/C=C/C=C(\C)[C@@H](OCCOC3COC3)C[C@@H]3CC[C@@H](C)[C@@](O)(O3)C(=O)C(=O)N3CCCC[C@H]3C(=O)O2)CC[C@H]1OP(C)(C)=O` [I-78, (1R,9S,12S,15R,16E,18R,19R,21R,23S,24E,26E,28E,30S,32S,35R)-12-[(1R)-2-[(1S,3R,4R)-4-dimethylphosphoryloxy-3-methoxy-cyclohexyl]-1-methyl-ethyl]-1,18-dihydroxy-19-methoxy-15,17,21,23,29,35-hexamethyl-30-[2-(oxetan-3-yloxy)ethoxy]-11,36-dioxa-4-azatricyclo[30.3.1.0^4,9]hexatriaconta-16,24,26,28-tetraene-2,3,10,14,20-pentone], the IC50 in assay [1] is no less than 1000 nM; in assay [2] it was less than 1 nM. The “mTORC1 selective @ 90 min” value with mTORC1 over mTORC2 is “Yes”.

For `CO[C@@H]1/C(C)=C/[C@@H](C)C(=O)C[C@@H]([C@H](C)C[C@@H]2CC[C@@H](O)[C@H](OC)C2)OC(=O)[C@@H]2CCCCN2C(=O)C(=O)[C@]2(O)O[C@@H](CC[C@H]2C)CC(OCCOC2COC2)/C(C)=C/C=C/C=C/[C@@H](C)C[C@@H](C)C(=O)[C@@H]1OC` (stereo partly drawn) [I-11, (3S,6R,7E,9R,10R,12R,14S,15E,17E,19E,23S,26R,27R,34aS)-27-hydroxy-3-((R)-1-((1S,3R,4R)-4-hydroxy-3-methoxycyclohexyl)propan-2-yl)-9,10-dimethoxy-6,8,12,14,20,26-hexamethyl-21-(2-(oxetan-3-yloxy)ethoxy)-9,10,12,13,14,21,22,23,24,25,26,27,32,33,34,34a-hexadecahydro-3H-23,27-epoxypyrido[2,1-c][1]oxa[4]azacyclohentriacontine-1,5,11,28,29(4H,6H,31H)-pentaone], the IC50 is no less than 1000 nM in assay [1] and 10 to 100 nM in assay [2]. For the same compound, the “mTORC1 selective @ 90 min” value with mTORC1 over mTORC2 was “Yes”.

`COCCOCCOC1C[C@@H]2CC[C@@H](C)[C@@](O)(O2)C(=O)C(=O)N2CCCC[C@H]2C(=O)O[C@H]([C@H](C)C[C@@H]2CCC(OC3COC3)[C@H](OC)C2)CC(=O)[C@H](C)/C=C(\C)[C@@H](O)[C@@H](OC)C(=O)[C@H](C)C[C@H](C)/C=C/C=C/C=C/1C` (stereo partly drawn) [I-7, (24E,26E,28E,29E,35R,36S,37R,38R,40S,42S,45S,47R,48R,57R)-47,57-dihydroxy-48-methoxy-44-[2-(2-methoxyethoxy)ethoxy]-45-[(1R)-2-[(1S,3R)-3-methoxy-4-(oxetan-3-yloxy)cyclohexyl]-1-methyl-ethyl]-35,36,37,38,49,50-hexamethyl-67,68-dioxa-58-azatricyclohexatriaconta-24,26,28(49),29(50)-tetraene-51,52,53,54,55-pentone]: the IC50 in assay [1] was no less than 1000 nM; in assay [2], 1 to 10 nM. Also, the “mTORC1 selective @ 90 min” value with mTORC1 over mTORC2 is listed as “Yes”.

In the case of `CO[C@@H]1/C(C)=C/[C@@H](C)C(=O)C[C@@H]([C@H](C)C[C@@H]2CC[C@@H](OC)[C@H](OC)C2)OC(=O)[C@@H]2CCCCN2C(=O)C(=O)[C@]2(O)O[C@@H](CC[C@H]2C)CC(OCCOC2COC2)/C(C)=C/C=C/C=C/[C@@H](C)C[C@@H](C)C(=O)[C@@H]1OC` (stereo partly drawn) [I-50, (25E,27E,29E,30E,34R,35S,36R,37R,39S,41S,44S,46R,47R,56R)-44-[(1R)-2-[(1S,3R,4R)-3,4-dimethoxycyclohexyl]-1-methyl-ethyl]-56-hydroxy-46,47-dimethoxy-34,35,36,37,48,49-hexamethyl-43-[2-(oxetan-3-yloxy)ethoxy]-65,66-dioxa-57-azatricyclohexatriaconta-25,27,29(48),30(49)-tetraene-50,51,52,53,54-pentone], the IC50 in assay [1] was no less than 1000 nM; in assay [2], 1 to 10 nM. In the assay on mTORC1 over mTORC2, the “mTORC1 selective @ 90 min” value was “Yes”.

As to `COCCO[C@@H]1CC[C@@H](C[C@@H](C)[C@@H]2CC(=O)[C@H](C)/C=C(\C)[C@@H](OC)[C@@H](OC)C(=O)[C@H](C)C[C@H](C)/C=C/C=C/C=C(\C)C(OCCOC3COC3)C[C@@H]3CC[C@@H](C)[C@@](O)(O3)C(=O)C(=O)N3CCCC[C@H]3C(=O)O2)C[C@H]1OC` (stereo partly drawn) [I-94, (25E,27E,29E,30E,36R,37S,38R,39R,41S,43S,46S,48R,49R,58R)-58-hydroxy-48,49-dimethoxy-46-[(1R)-2-[(1S,3R,4R)-3-methoxy-4-(2-methoxyethoxy)cyclohexyl]-1-methyl-ethyl]-36,37,38,39,50,51-hexamethyl-45-[2-(oxetan-3-yloxy)ethoxy]-67,68-dioxa-59-azatricyclohexatriaconta-25,27,29(50),30(51)-tetraene-52,53,54,55,56-pentone], the values for the IC50 in assay [1] and in assay [2] were no less than 1000 nM and 10 to 100 nM, respectively. In addition, the “mTORC1 selective @ 90 min” value in the assay on mTORC1 over mTORC2 was “Yes”.

In the case of `CO[C@@H]1C[C@H](C[C@@H](C)[C@@H]2CC(=O)[C@H](C)/C=C(\C)[C@@H](O)[C@@H](OC)C(=O)[C@H](C)C[C@H](C)/C=C/C=C/C=C(\C)C(OCCOC3COC3)C[C@@H]3CC[C@@H](C)[C@@](O)(O3)C(=O)C(=O)N3CCCC[C@H]3C(=O)O2)CC[C@H]1OCCCN1CCN(C)CC1` (stereo partly drawn) [I-15, (28E,30E,32E,33E,40R,41S,42R,43R,45S,47S,50S,52R,53R,62R)-52,62-dihydroxy-53-methoxy-50-[(1R)-2-[(1S,3R,4R)-3-methoxy-4-[3-(4-methylpiperazin-1-yl)propoxy]cyclohexyl]-1-methyl-ethyl]-40,41,42,43,54,55-hexamethyl-49-[2-(oxetan-3-yloxy)ethoxy]-74,75-dioxa-65-azatricyclohexatriaconta-28,30,32(54),33(55)-tetraene-56,57,58,59,60-pentone], the IC50 in assay [1] is no less than 1000 nM; in assay [2], 1 to 10 nM. Further, in the assay with mTORC1 over mTORC2, the “mTORC1 selective @ 90 min” value was “Yes”.

For the compound `CO[C@@H]1/C(C)=C/[C@@H](C)C(=O)C[C@@H]([C@H](C)C[C@@H]2CC[C@@H](OC)[C@H](OC)C2)OC(=O)[C@@H]2CCCCN2C(=O)C(=O)[C@]2(O)O[C@@H](CC[C@H]2C)CC(OCCOCCN)/C(C)=C/C=C/C=C/[C@@H](C)C[C@@H](C)C(=O)[C@@H]1OC` (stereo partly drawn) [I-22], the IC50 in assay [1] was no less than 1000 nM; in assay [2], 100 to 1000 nM. The “mTORC1 selective @ 90 min” value with mTORC1 over mTORC2 is “Yes”.

As for `COCCOCCO[C@@H]1C[C@@H]2CC[C@@H](C)[C@@](O)(O2)C(=O)C(=O)N2CCCC[C@H]2C(=O)O[C@H]([C@H](C)C[C@@H]2CC[C@@H](OC)[C@H](OC)C2)CC(=O)[C@H](C)/C=C(\C)[C@@H](OC)[C@@H](OC)C(=O)[C@H](C)C[C@H](C)/C=C/C=C/C=C/1C` [I-30, (24E,26E,28E,29E,35R,36S,37R,38R,40S,42S,44R,45S,46R,47R,56R)-45-[(1R)-2-[(1S,3R,4R)-3,4-dimethoxycyclohexyl]-1-methyl-ethyl]-56-hydroxy-46,47-dimethoxy-44-[2-(2-methoxyethoxy)ethoxy]-35,36,37,38,48,49-hexamethyl-64,65-dioxa-57-azatricyclohexatriaconta-24,26,28(48),29(49)-tetraene-50,51,52,53,54-pentone], the values for the IC50 in assay [1] and in assay [2] were no less than 1000 nM and 10 to 100 nM, respectively. In the assay on mTORC1 over mTORC2, the “mTORC1 selective @ 90 min” value was “Yes”.

Regarding `CO[C@@H]1/C(C)=C/[C@@H](C)C(=O)C[C@@H]([C@H](C)C[C@@H]2CC[C@@H](OCCCO)[C@H](OC)C2)OC(=O)[C@@H]2CCCCN2C(=O)C(=O)[C@]2(O)O[C@@H](CC[C@H]2C)C[C@@H](OCCOC2COC2)/C(C)=C/C=C/C=C/[C@@H](C)C[C@@H](C)C(=O)[C@@H]1OC` [I-44, (23E,25E,27E,28E,35R,36S,37R,38R,40S,42S,44R,45S,47R,48R,57R)-47,57-dihydroxy-45-[(1R)-2-[(1S,3R,4R)-4-(3-hydroxypropoxy)-3-methoxy-cyclohexyl]-1-methyl-ethyl]-48-methoxy-35,36,37,38,49,50-hexamethyl-44-[2-(oxetan-3-yloxy)ethoxy]-68,69-dioxa-58-azatricyclohexatriaconta-23,25,27(49),28(50)-tetraene-51,52,53,54,55-pentone], the IC50 in assay [1] was no less than 1000 nM; in assay [2], 1 to 10 nM. For the same compound, in the assay on mTORC1 over mTORC2, the “mTORC1 selective @ 90 min” value is given as “Yes”.
